Data as given in US9221823B2, “Crystal form of pyrrolidylthiocarbapenem derivative” (Shionogi & Co., Ltd., priority 2000, dated 2015).

How the values were obtained:
Assay type in all cases: physicochemical
[1] = Moisture measurement after storage (Karl Fischer water determination); conditions: for Moisture absorption (in words): storage at 40° C. and 75% RH up to 1 month
Procedure: Storage conditions were 40° C. and 75% RH. The periods of time for storage were 1 week, 2 weeks and 1 month. During these storage periods, samples were stored in opened petri dishes. After storage in this manner, the moisture and potency of each sample were measured. The moisture was measured according to REQUIREMENT FOR ANTIBIOTIC PRODUCTS OF JAPAN General Tests MOISTURE DETERMINATION II Water determination. Note that Karl Fischer formamide methanol mixture II was used as the solvent.

[2] = Potency test by liquid chromatography after storage; conditions: for Change of potency over storage time (in words): storage at 40° C. and 75% RH up to 1 month
Procedure: Storage conditions were 40° C. and 75% RH. The periods of time for storage were 1 week, 2 weeks and 1 month. During these storage periods, samples were stored in opened petri dishes.
After storage in this manner, the moisture and potency of each sample were measured.
A potency test was conducted by the following method. About 0.025 g of each of the type IV crystal obtained in Example 4 and type II crystal and a standard product of S-4661 was precisely measured. Each sample was dissolved in water to precisely 100 mL. 10 mL of each solution was precisely measured, to which 5 ml of internal standard solution was added. As the internal standard solution, aqueous acetaminophen solution (concentration 1/20000:1 g of acetaminophen in 20000 ml of the solution) was used. Thereafter, water was added to each solution to 50 mL. Solutions prepared from the type IV or II crystals were used as sample solutions. A solution prepared from a standard product of S-4661 was used as a standard solution. 10 μL of each of the sample solutions and the standard solution were subjected to liquid chromatography under the following conditions. For the sample solution, the ratio QT of the peak area of S-4661 to the peak area of the internal standard substance was obtained. For the standard solution, the ratio QS of the peak area of S-4661 to the peak area of the internal standard substance was obtained.
Conditions for Operation • Detector: ultraviolet absorptiometer (measurement wavelength: 240 nm) • Column: a stainless steel tube having an inner diameter of about 4.6 mm and a length of about 15 cm was filled with 5 μm of octadecylsilylated silica gel for liquid chromatography (L-column ODS). • Column temperature: a constant temperature of around 25° C. • Mobile phase: 2 mmol/L phosphate buffer pH 5.8/acetonitrile mixture (191:9) • Flow rate: Flow rate was adjusted so that the retention time of S-4661 was about 8 to 9 minutes (about 1 mL/min). • Selection of column: 10 μL of standard solution was used and the operation was conducted under the above-described conditions. A column, which elutes S-4661 and the internal standard substance in this order and has a resolution between S-4661 and the internal standard substance of at least 3, was used.
Potencies were calculated by the following expression.

[3] = Assessment of storage stability of crystals; conditions: for Storage stability (in words): compared to conventional type I or II crystals
Procedure: The storage stability of the thus-obtained crystal of the present invention was assessed.
Hereinafter, a result of evaluation of comparing the stability of the crystals of the present invention with that of a conventional crystal (type II crystal) is specifically shown.
The stability of type II crystal of S4661 (conventional crystal) was compared with that of the type IV crystal obtained in the above-described Example 4.

[4] = 1 month storage at 40° C. and 75% RH, opened petri dish
[5] = 1 week storage at 40° C. and 75% RH, opened petri dish
[6] = 2 weeks storage at 40° C. and 75% RH, opened petri dish

Row | Structure (SMILES) | Moisture [1, 4] [%] | Moisture [1, 5] [%] | Moisture [1, 6] [%] | Moisture ([1]; Initial time, before storage) [%] | Moisture level at which moisture became constant ([1]; after about two weeks at 40° C. and 75% RH) | Moisture absorption (in words) ([1]; listed as type II crystal) | Potency [2, 4] [µg/mg] | Potency [2, 5] [µg/mg] | Potency [2, 6] [µg/mg] | Potency ([2]; Initial time, before storage) [µg/mg] | Change of potency over storage time (in words) ([2]; listed as type II crystal) | Storage stability (in words) ([3]; listed as type III crystal) | Moisture absorption (in words) ([1]; listed as type IV crystal) | Storage stability (in words) ([3]; listed as type IV crystal) | Stability relative to type II crystal (other test results, in words) ([3]; other test results) | Change of potency over storage time (in words) ([2]; listed as type IV crystal)
1 | C[C@@H](O)[C@H]1C(=O)N2C(C(=O)O)=C(S[C@@H]3CN[C@H](CNS(N)(=O)=O)C3)[C@H](C)[C@H]12 [Type II, (+)-(4R,5S,6S)-6-[(1R)-1-hydroxyethyl]-4-methyl-7-oxo-3[[(3S,5S)-5-(sulfamoylaminomethyl)pyrrolidin-3-yl]thio]-1-azabicyclo[3.2.0]hept-2-ene-2-carboxylic acid] | 10.31 | 9.51 | 10.36 | 4.56 | about 10% | absorbs moisture | 826.4 | 956.2 | 923.0 | 983.2 | decreased over time |  |  |  |  | 
2 | C[C@@H](O)[C@H]1C(=O)N2C(C(=O)O)=C(S[C@@H]3CN[C@H](CNS(N)(=O)=O)C3)[C@H](C)[C@H]12 [Type III, (+)-(4R,5S,6S)-6-[(1R)-1-hydroxyethyl]-4-methyl-7-oxo-3[[(3S,5S)-5-(sulfamoylaminomethyl)pyrrolidin-3-yl]thio]-1-azabicyclo[3.2.0]hept-2-ene-2-carboxylic acid] |  |  |  |  |  |  |  |  |  |  |  | excellent storage stability as compared to conventional type I or II crystals |  |  |  | 
3 | C[C@@H](O)[C@H]1C(=O)N2C(C(=O)O)=C(S[C@@H]3CN[C@H](CNS(N)(=O)=O)C3)[C@H](C)[C@H]12 [Type IV, (+)-(4R,5S,6S)-6-[(1R)-1-hydroxyethyl]-4-methyl-7-oxo-3[[(3S,5S)-5-(sulfamoylaminomethyl)pyrrolidin-3-yl]thio]-1-azabicyclo[3.2.0]hept-2-ene-2-carboxylic acid] | 4.99 | 4.79 | 4.89 | 4.62 |  |  | 981.5 | 990.8 | 992.4 | 993.3 |  |  | absorbs substantially no moisture | more excellent storage stability | more stable than the type II crystal | no significant change
